Here are results for four molecules from US20100204157A1, “USE OF A PEPTIDE AS A THERAPEUTIC AGENT” (priority 2007, published 2010).

The subject of one series is HepG2-2.2.15 cells. Nature of the series: Cell viability in HepG2-2.2.15 cells (dye uptake). In kind it is cell-based. The settings on record: test peptide 10 micrograms per ml, dye uptake assay.
Another series concerns CEM-SS cells. Briefly: Cytotoxicity in CEM-SS cells (MTS). To be noted: peptide 10 micrograms per ml, MTS.
The test system of a further series is HIV-1IIIB. Briefly: HIV-1 antiviral assay (CPE reduction, MTS). In kind it is cell-based. The settings on record: peptide 10 micrograms per ml, 6 days post-infection.
For a further series, the system named is MRC-5 cells. The settings on record: human, 6 days.
In the next series the test system is Pseudomonas aeruginosa. Nature of the series: Pseudomonas aeruginosa assay. The settings on record: Pseudomonas aeruginosa growth; peptide 10 micrograms per ml; read visually. In kind it is cell-based.
A further series has as its system MRSA. Nature of the series: Methicillin Resistant Staphylococcus Aureus (MRSA) assay. In kind it is cell-based. To be noted: MRSA growth; peptide 10 micrograms per ml; read visually.
A further series concerns Streptococcus pneumoniae. Briefly: Streptococcus pneumoniae assay. To be noted: Streptococcus pneumoniae growth; peptide 10 micrograms per ml; read visually. In kind it is cell-based.
Series [1] in a line: Cytotoxicity in CEM-SS cells (MTS). The settings on record: human.
Series [2] is described as follows: Cytotoxicity in MRC-5 cells (CellTiter 96). To be noted: human, MRC-5 cells (embryonal lung fibroblasts).
Description: For cytotxicity testing, MRC-5 cells were seeded at 2,500 cells/well in 96 well plates using growth medium. […] The following day, peptide were added and tested in duplicates. After a 6 days incubation period, cell viability was measured using CellTiter 96 Solution (Promega). Plates were incubated for additional 4 hours at 37° C.
A short description of series [3]: Cell viability in HepG2-2.2.15 cells (dye uptake). In kind it is cell-based. To be noted: human, HepG2-2.2.15 cells (stable line containing HBV ayw genome), test peptide 10 micrograms per ml, dye uptake assay.

Where no end group is shown, it is not given here.

Description for Pseudomonas aeruginosa: The antibacterial assay was conducted using clear, U-bottom 96-well microtiter plates. Cation-adjusted Mueller-Hinton Broth (MHB) was used for testing Pseudomonas aeruginosa. The peptide of the invention (0.1 ml of each—10 micrograms per ml—) were dispensed into wells in duplicate. Then the wells were inoculated with 5×10^5 CFU/mL Pseudomonas aeruginosa in 0.1 ml volume. For control purposes, each plate included 4 wells containing media without bacterial inoculum and 4 wells containing medium with inoculum but without peptide. The plates were incubated for 12 h at 37° C., and read visually 18-24 hours post-incubation. Growth control of Pseudomonas aeruginosa was examined first to determine adequacy of media preparations and growth conditions. Acceptable growth is defined as ≧2 mm wide button of cells at the bottom of each sample well, or obvious turbidity in the culture supernatant. Test wells were examined and scored as positive/negative for activity. A positive score for activity is based on complete inhibition of macroscopic growth of the test Pseudomonas aeruginosa.
Description for Streptococcus pneumoniae: The antibacterial assay was conducted using clear, U-bottom 96-well microtiter plates. Cation-adjusted Mueller-Hinton Broth (MHB) was used for testing Streptococcus pneumoniae. The peptide of the invention (0.1 ml of each—10 micrograms per ml—) were dispensed into wells in duplicate. Then the wells were inoculated with 5×10^5 CFU/mL Streptococcus pneumoniae in 0.1 ml volume. For control purposes, each plate included 4 wells containing media without bacterial inoculum and 4 wells containing medium with inoculum but without peptide. The plates were incubated for 12 h at 37° C., and read visually 18-24 hours post-incubation. Growth control of Streptococcus pneumoniae was examined first to determine adequacy of media preparations and growth conditions. Acceptable growth is defined as ≧2 mm wide button of cells at the bottom of each sample well, or obvious turbidity in the culture supernatant. Test wells were examined and scored as positive/negative for activity. A positive score for activity is based on complete inhibition of macroscopic growth of the test Streptococcus pneumoniae.

In the case of `Nc1ccn([C@@H]2CS[C@H](CO)O2)c(=O)n1` [3TC, Lamivudine, reference compound], in the series with HepG2-2.2.15 cells, the “% Cell Viability” value worked out at 95.8%.

Regarding `Cc1cn([C@H]2C[C@H](N=[N+]=[N-])[C@@H](CO)O2)c(=O)[nH]c1=O` [AZT, reference compound], in the series with CEM-SS cells, the “% Cell Viability” value amounted to 97%. Besides, the “% CPE reduction in HIV-1 infected CEM-SS cells” value with HIV-1IIIB was 99%.

For `Nc1nc(O)c2ncn(COC(CO)CO)c2n1` [Ganciclovir], the “% Cell Viability” value in the series with MRC-5 cells is 100%.

As for FFVAP [Phe-Phe-Val-Ala-Pro], the “% inhibition” value in the series on Pseudomonas aeruginosa, with MRSA and in the series with Streptococcus pneumoniae was 0.0% each time. In addition, in series [1], the viability at 10 micrograms per ml came out at 100%. In addition, the viability at 144 h in [2] is 100%. The viability at 144 h, 10 micrograms per ml in series [3] came out at 98.1%.

In general, % inhibition refers to the change of the read-out against control, counted positive when it falls. Higher therefore signals a response far below the control. As a reminder, the viability is the share of living cells, or the viability signal relative to a control. A lower viability goes with a greater loss of cells.
